Results: patent publication US10165789B2, “Acerola powder for use as a substitute for ascorbic acid in the agri-food field” (DIANA NATURALS, priority 2012, dated 2019)
Marks after values point to notes of the source that are not given here.

Columns and labels:
[1] = Antiradical activity, trapping of the free radical DPPH; assay type: biochemical; conditions: fixed concentration of 0.44 mg/ml ascorbic acid eq; tested in combination with Mg(OH)2 in the proportions present in the powder of the invention
[2] = Overall antioxidant power

SMILES: O=C1O[C@H]([C@@H](O)CO)C(O)=C1O [Ascorbic acid]
- Antiradical activity (% of trapping of the free radical DPPH) [1]: 70.6* %
- Overall antioxidant power [2]: 34 g/100 g of product in ascorbic acid eq
